# From patent publication US4241069A, “3-Methylene flavanones and 3-methylene chromanones” (Miles Laboratories, Inc., priority 1979, dated 1980)
# Assays:
# [1] = system: A. fumigatus NRRL 163; assay: MIC, agar incorporation method; type: cell-based; conditions: Aspergillus fumigatus, NRRL163, NRRL 163; 32° C., 48-72 hours; read-out: Minimal Inhibitory Concentration
# Method: (§1) The compounds of the present invention were tested for their ability to inhibit the growth of microorganisms by in vitro tests. Generally the in vitro tests involve growing representative microorganisms under conditions favorable to such growth and measuring the effectiveness of one or more compounds in inhibiting or destroying the growth of the microorganisms. The microorganisms used include representative bacteria, fungi and yeasts.
# (§2) A representative selection of the test microorganisms were cultured in a nutrient broth, such as, for example, Eugon, commercially available from Difco Laboratories, Detroit, Michigan. Bacteria and Candida species were cultured for 24 hours at 32°-37° C. and fungi were cultured for approximately one week at 32° C. Inocula were prepared by suspending the growth or spores from a slant culture in sufficient sterile normal (0.9 percent) saline or Eugon broth, to yield cell or spore concentrations of 1,000,000 cells per milliliter. Anaerobic bacteria were cultured for 48-72 hours at 32°-37° C. in a thioglycollate containing medium, for example, Fluid Thioglycollate medium or NIH thioglycollate broth, commercially available from Difco Laboratories.
# (§3) The compounds of the present invention were tested for activity against bacteria, yeasts and fungi by the agar incorporation method described below. MA 1347, 3-(dimethylaminomethyl)flavanone (disclosed in U.S. Pat. No. 3,753,985) was used as a comparative standard along with controls for each solvent system used.
# (§4) A series of agar plates containing two-fold dilutions of each compound to be tested, ranging in concentration from 100 to 3.1 mcg/ml of agar medium was prepared. Aliquots of each concentration (100, 50, 25, 12.5, 6.2, and 3.1) prepared in N,N-dimethylformamide or 50 percent aqueous DMF were added to liquid Eugon agar at 48° C. (one part test solution to 100 parts agar). In some cases, tests with further dilutions to 0.125 mcg/ml were conducted. The agar medium, containing the 3-methylene flavanone or chromanone compound to be tested, was then dispensed into petri dishes and allowed to solidify. The solidified plates were kept overnight at room temperatures to dry the surface of the agar.
# (§5) The agar plates were then inoculated with a drop of the standardized cell or spore suspension. Inoculated plates were incubated at 32° C. The inhibition end-point or minimum inhibitory concentration (MIC) shown in Table D represent the lowest concentration of test compound which inhibited the growth of the microorganism. Visual determination of growth inhibition was used. Bacteria and yeast end-points were determined after 24 hours incubation; molds, dermatophytes and anaerobes after 48-72 hours incubation. MIC values shown as ranges represent the extremes found in repeat assays. Virtually all such values were written plus or minus one dilution, the accepted variation of a two-fold dilution assay.
# [2] = system: C. albicans NRRL Y-477; assay: MIC, agar incorporation method; type: cell-based; conditions: Candida albicans, NRRLY477, 32° C., 24 hours, read-out: Minimal Inhibitory Concentration
# Method: as §1, §2, §3, §4, §5
# [3] = system: C. guillermondii VM 42; assay: MIC, agar incorporation method; type: cell-based; conditions: 32° C., 24 hours; read-out: Minimal Inhibitory Concentration
# Method: as §1, §2, §3, §4, §5
# [4] = system: C. krusei VM 29B; assay: MIC, agar incorporation method; type: cell-based; conditions: Pichia kudriavzevii, VM29B; 32° C., 24 hours; read-out: Minimal Inhibitory Concentration
# Method: as §1, §2, §3, §4, §5
# [5] = system: C. tropicalis NRRL Y1410; assay: MIC, agar incorporation method; type: cell-based; conditions: Candida tropicalis, NRRLY1410; 32° C., 24 hours; read-out: Minimal Inhibitory Concentration
# Method: as §1, §2, §3, §4, §5
# [6] = system: Candida albicans ATCC 10231; assay: MIC, agar incorporation method; type: cell-based; conditions: ATCC10231, C. albicans ATCC 10231, 32° C., 24 hours, read-out: Minimal Inhibitory Concentration
# Method: as §1, §2, §3, §4, §5
# [7] = system: Escherichia coli ATCC 8739; assay: MIC, agar incorporation method; type: cell-based; conditions: ATCC8739, 32° C., 24 hours, read-out: Minimal Inhibitory Concentration
# Method: as §1, §2, §3, §4, §5
# [8] = system: Microsporum gypseum ATCC 14683; assay: MIC, agar incorporation method; type: cell-based; conditions: Nannizzia gypsea, ATCC14683, 32° C., 48-72 hours; read-out: Minimal Inhibitory Concentration
# Method: as §1, §2, §3, §4, §5
# [9] = system: Pseudomonas aeruginosa ATCC 14502; assay: MIC, agar incorporation method; type: cell-based; conditions: ATCC14502, 32° C., 24 hours, read-out: Minimal Inhibitory Concentration
# Method: as §1, §2, §3, §4, §5
# [10] = system: Staphylococcus aureus ATCC 6538; assay: MIC, agar incorporation method; type: cell-based; conditions: Staphylococcus aureus, ATCC6538; S. aureus ATCC 6538; 32° C., 24 hours; read-out: Minimal Inhibitory Concentration
# Method: as §1, §2, §3, §4, §5
# [11] = system: Streptococcus faecalis ATCC 10541; assay: MIC, agar incorporation method; type: cell-based; conditions: Enterococcus faecalis, ATCC10541; 32° C., 24 hours; read-out: Minimal Inhibitory Concentration
# Method: as §1, §2, §3, §4, §5
# [12] = system: T. mentagrophytes CDC; assay: MIC, agar incorporation method; type: cell-based; conditions: Trichophyton mentagrophytes, 32° C., 48-72 hours, read-out: Minimal Inhibitory Concentration
# Method: as §1, §2, §3, §4, §5
# [13] = system: T. mentagrophytes TM-2; assay: MIC, agar incorporation method; type: cell-based; conditions: Trichophyton mentagrophytes, TM2, 32° C., 48-72 hours, read-out: Minimal Inhibitory Concentration
# Method: as §1, §2, §3, §4, §5
# [14] = system: T. tonsurans ATCC 10217; assay: MIC, agar incorporation method; type: cell-based; conditions: Trichophyton tonsurans, ATCC10217; 32° C., 48-72 hours; read-out: Minimal Inhibitory Concentration
# Method: as §1, §2, §3, §4, §5
# [15] = system: Trichophyton mentagrophytes ATCC 4807; assay: MIC, agar incorporation method; type: cell-based; conditions: ATCC4807, 32° C., 48-72 hours, read-out: Minimal Inhibitory Concentration
# Method: as §1, §2, §3, §4, §5
# [16] = system: S. aureus NRRL B2747; assay: MIC, agar incorporation method; type: cell-based, Staphylococcus aureus; conditions: Staphylococcus aureus, NRRLB2747, 32° C., 24 hours, read-out: Minimal Inhibitory Concentration
# Method: as §1, §2, §3, §4, §5
# [17] = system: Bacteriodides fragilis ATCC 8482; assay: MIC, agar incorporation method, anaerobic; type: cell-based; conditions: 48 hours at 35° C., GasPak Anaerobic Jar, read-out: Minimal Inhibitory Concentration
# Method: as §1, §2, §3, §4, §5
# (§6) *Anaerobic: 48 hours incubation at 35° C. GasPak Anaerobic Jar
# [18] = system: Clostridium sporogenes ATCC 11437; assay: MIC, agar incorporation method, anaerobic; type: cell-based; conditions: ATCC11437, 48 hours at 35° C., GasPak Anaerobic Jar, read-out: Minimal Inhibitory Concentration
# Method: as §1, §2, §3, §4, §5, §6
# [19] = system: Propionobacterium acnes ATCC 6919; assay: MIC, agar incorporation method, anaerobic; type: cell-based; conditions: 48 hours at 35° C., GasPak Anaerobic Jar, read-out: Minimal Inhibitory Concentration
# Method: as §1, §2, §3, §4, §5, §6
# [20] = system: S. aureus NRRL B2747; assay: MIC, agar incorporation method, anaerobic; type: cell-based; conditions: Staphylococcus aureus, NRRLB2747, 48 hours at 35° C., GasPak Anaerobic Jar, read-out: Minimal Inhibitory Concentration
# Method: as §1, §2, §3, §4, §5, §6
# [21] = system: A. fumigatus NRRL 165; assay: MIC, agar incorporation method; type: cell-based; conditions: Aspergillus fumigatus, NRRL165, 32° C., 48-72 hours, read-out: Minimal Inhibitory Concentration
# Method: as §1, §2, §3, §4, §5
# [22] = system: Aspergillus niger ATCC 16404; assay: MIC, agar incorporation method; type: cell-based; conditions: ATCC16404, 32° C., 48-72 hours, read-out: Minimal Inhibitory Concentration
# Method: as §1, §2, §3, §4, §5
# [23] = system: Proteus vulgaris NRRL B123; assay: MIC, agar incorporation method; type: cell-based; conditions: NRRLB123, 32° C., 24 hours, read-out: Minimal Inhibitory Concentration
# Method: as §1, §2, §3, §4, §5
# [24] = system: Sarcina subflava ATCC 7468; assay: MIC, agar incorporation method; type: cell-based; conditions: ATCC7468, 32° C., 24 hours, read-out: Minimal Inhibitory Concentration
# Method: as §1, §2, §3, §4, §5
# [25] = system: T. rubrum ATCC 10218; assay: MIC, agar incorporation method; type: cell-based; conditions: Trichophyton rubrum, ATCC10218; 32° C., 48-72 hours; read-out: Minimal Inhibitory Concentration
# Method: as §1, §2, §3, §4, §5
# [26] = system: Clostridium acetobutylicum ATCC 824; assay: MIC, agar incorporation method, anaerobic; type: cell-based; conditions: ATCC824, 48 h, 48 hours at 35° C., GasPak Anaerobic Jar, read-out: Minimal Inhibitory Concentration
# Method: as §1, §2, §3, §4, §5, §6
smiles,measurement,setting,value
"C=C1C(=O)c2ccccc2OC1c1ccccc1 (stereo not drawn) [Ex. 1, 3-methylene flavanone]",MIC,[1],6.2 µg/mL
same,MIC,[2],50 µg/mL
same,MIC,[3],100 µg/mL
same,MIC,[4],50 µg/mL
same,MIC,[5],100 µg/mL
same,MIC,[6],50 µg/mL
same,MIC,[7],> 100 µg/mL
same,MIC,[8],6.2 to 12.5 µg/mL
same,MIC,[9],> 100 µg/mL
same,MIC,[10],6.2 µg/mL
same,MIC,[11],100 µg/mL
same,MIC,[12],12.5 µg/mL
same,MIC,[13],12.5 µg/mL
same,MIC,[14],6.2 µg/mL
same,MIC,[15],12.5 µg/mL
same,MIC,[16],12.5 µg/mL
same,MIC,[17],1.56 µg/mL
same,MIC,[18],12.5 µg/mL
same,MIC,[19],12.5 µg/mL
same,MIC,[20],25 µg/mL
"C=C1C(=O)c2ccccc2OC1c1ccc(Cl)cc1 (stereo not drawn) [Ex. 3, 4'-chloro-3-methylene flavanone]",MIC,[1],6.2 µg/mL
same,MIC,[21],50 µg/mL
same,MIC,[22],25 µg/mL
same,MIC,[2],12.5 µg/mL
same,MIC,[3],25 µg/mL
same,MIC,[4],12.5 µg/mL
same,MIC,[5],25 µg/mL
same,MIC,[6],12.5 µg/mL
same,MIC,[7],> 100 µg/mL
same,MIC,[8],6.2 µg/mL
same,MIC,[23],> 100 µg/mL
same,MIC,[9],> 100 µg/mL
same,MIC,[24],6.2 µg/mL
same,MIC,[10],≤ 3.1 µg/mL
same,MIC,[11],25 µg/mL
same,MIC,[12],6.2 µg/mL
same,MIC,[13],6.2 µg/mL
same,MIC,[25],≤ 3.1 µg/mL
same,MIC,[15],6.2 µg/mL
same,MIC,[16],3.1 µg/mL
same,MIC,[26],≤ 100 µg/mL
same,MIC,[19],≤ 100 µg/mL
"C=C1C(=O)c2ccccc2OC1c1ccc(Cl)cc1Cl (stereo not drawn) [Ex. 4, 2',4'-dichloro-3-methylene flavanone]",MIC,[1],50 µg/mL
same,MIC,[22],100 µg/mL
same,MIC,[2],25 µg/mL
same,MIC,[3],50 µg/mL
same,MIC,[4],25 to 50 µg/mL
same,MIC,[5],50 µg/mL
same,MIC,[6],25 µg/mL
same,MIC,[7],> 100 µg/mL
same,MIC,[8],6.2 to 12.5 µg/mL
same,MIC,[9],> 100 µg/mL
same,MIC,[24],3.1 µg/mL
same,MIC,[10],1.56 µg/mL
same,MIC,[11],25 to 50 µg/mL
same,MIC,[12],12.5 to 25 µg/mL
same,MIC,[13],12.5 to 25 µg/mL
same,MIC,[25],12.5 µg/mL
same,MIC,[14],6.2 µg/mL
same,MIC,[15],12.5 µg/mL
same,MIC,[16],1.56 µg/mL
same,MIC,[17],3.1 µg/mL
same,MIC,[18],≤ 0.78 µg/mL
same,MIC,[19],3.1 µg/mL
same,MIC,[20],6.2 µg/mL
"C=C1C(=O)c2ccccc2OC1c1ccc([N+](=O)[O-])cc1 (stereo not drawn) [Ex. 10, 4'-nitro-3-methylene flavanone]",MIC,[1],12.5 µg/mL
same,MIC,[21],100 µg/mL
same,MIC,[22],50 µg/mL
same,MIC,[2],25 µg/mL
same,MIC,[3],50 µg/mL
same,MIC,[4],25 µg/mL
same,MIC,[5],50 µg/mL
same,MIC,[6],25 µg/mL
same,MIC,[7],> 100 µg/mL
same,MIC,[8],6.2 µg/mL
same,MIC,[23],> 100 µg/mL
same,MIC,[9],> 100 µg/mL
same,MIC,[24],12.5 µg/mL
same,MIC,[10],≤ 3.1 µg/mL
same,MIC,[11],50 µg/mL
same,MIC,[12],6.2 µg/mL
same,MIC,[13],6.2 µg/mL
same,MIC,[25],≤ 3.1 µg/mL
same,MIC,[15],6.2 µg/mL
same,MIC,[16],6.2 µg/mL
same,MIC,[26],≤ 100 µg/mL
same,MIC,[19],≤ 100 µg/mL
